Starred links: 1 amine or outer side, 2 acyl side, 3 side chain; linkers in the order of their positions; H or OH if unused. Positions of bridges follow the written chain, without caps; N, C: chain ends. Non-standard residues stand in square brackets, D forms with d. Residues, ends and D or L forms follow the SMILES beside them. *: point of attachment. hPhe(3-Cl-4-CF3) = N[C@@H](CCc1ccc(C(F)(F)F)c(Cl)c1)C(=O)O; NMePhe(4-Me) = CN[C@@H](Cc1ccc(C)cc1)C(=O)O; NMedβ3hAla = C[C@H](CC(=O)[*:2])N(C)[*:1]; NMeNva(5,5-F2) = CN[C@@H](CCC(F)F)C(=O)O; NMeGly(cPent) = CN[C@H](C(=O)O)C1CCCC1; NMe3Pal = CN[C@@H](Cc1cccnc1)C(=O)O; NMeCha = CN[C@@H](CC1CCCCC1)C(=O)O; Pro(4-oxo) = O=C1CN[C@H](C(=O)O)C1; NMeChg = CN[C@H](C(=O)O)C1CCCCC1; NMeF = CN[C@@H](Cc1ccccc1)C(=O)O; NMeI = CC[C@H](C)[C@H](NC)C(=O)O; NMeD = CN[C@@H](CC(=O)O)C(=O)O; dNMeD = CN[C@H](CC(=O)O)C(=O)O; NMeL = CN[C@@H](CC(C)C)C(=O)O; NMeNle = CCCC[C@H](NC)C(=O)O; NMeV = CN[C@H](C(=O)O)C(C)C; d(β3hA) = C[C@@H](N)CC(=O)O; NMeS = CN[C@@H](CO)C(=O)O; Morpholide = C1CN(*)CCO1; NMeA = CN[C@@H](C)C(=O)O; Piperidide = C1CCN(*)CC1; Pyrrolidide = C1CCN(*)C1; dNMeA = CN[C@H](C)C(=O)O; Ac5c = NC1(C(=O)O)CCCC1; Aze = O=C(O)[C@@H]1CCN1; Abu = CC[C@H](N)C(=O)O; Sar = CNCC(=O)O; Propyl = CCC*
Target: T1, Kras and SOS1 (biotin-tagged human Kras loaded with GDP, His-tagged human SOS1) (Homo sapiens, UniProt P01116, G12D)
T1 construct: made in house; host or cells: E. coli (stated for Kras only)
Assay: Protein-protein interaction inhibition between Kras and SOS1 (KrasGl2D-SOS PPI) using AlphaScreen
Type: binding
Settings: AlphaScreen; biotin-tagged human Kras loaded with GDP, His-tagged human SOS1; read-out: KRAS G12D-SOS PPI IC50
Method in brief: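 Kras was produced in E. coli, purified, then loaded with GDP. It was paired via streptavidin acceptor beads with His-SOS1 held on nickel donor beads, and proximity signal at 520-620 nm was read after 680 nm illumination.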

T1 sequence (P01116 1-188 isoform P01116-2 G12D): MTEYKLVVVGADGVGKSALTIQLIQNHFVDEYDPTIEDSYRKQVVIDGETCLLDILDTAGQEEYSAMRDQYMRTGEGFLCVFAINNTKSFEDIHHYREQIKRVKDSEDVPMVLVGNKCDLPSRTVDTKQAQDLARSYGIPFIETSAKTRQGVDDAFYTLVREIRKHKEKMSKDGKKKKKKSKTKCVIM

Row | Compound | IC50 [nM]
1 | CC(C)C[C@H]1C(=O)N[C@@H](CO)C(=O)N(C)[C@@H](C)C(=O)N2CC[C@H]2C(=O)N(C)[C@@H](CC2CCCCC2)C(=O)N(C)CC(=O)N[C@@H](CCc2ccc(C(F)(F)F)c(Cl)c2)C(=O)N2CCC[C@H]2C(=O)NC2(CCCC2)C(=O)N(C)[C@@H](C(C)C)C(=O)N(C)[C@H](C(=O)N2CCCCC2)CC(=O)N1C [Compound 1768] ([NMeL]S[NMeA][Aze][NMeCha][Sar][hPhe(3-Cl-4-CF3)]P[Ac5c][NMeV][NMeD]-Piperidide; lactam N-11) | 140
2 | CCCOC[C@H]1C(=O)N(C)[C@H](C(=O)N2CCCCC2)CC(=O)N(C)[C@@H](CC(C)C)C(=O)N[C@@H]([C@@H](C)CC)C(=O)N(C)CC(=O)N(C)CC(=O)N(C)[C@@H](CC2CCCCC2)C(=O)N(C)CC(=O)N[C@@H](CCc2ccc(C(F)(F)F)c(Cl)c2)C(=O)N2CCC[C@H]2C(=O)NC2(CCCC2)C(=O)N1C [Compound 1771] ([NMeL]I[Sar][Sar][NMeCha][Sar][hPhe(3-Cl-4-CF3)]P[Ac5c][NMeS](Propyl)[NMeD]-Piperidide; lactam N-11) | 78
3 | CC[C@@H]1NC(=O)[C@H](CC(C)C)N(C)C(=O)C[C@@H](C(=O)N2CCCCC2)N(C)C(=O)[C@H](C2CCCCC2)N(C)C(=O)C2(CCCC2)NC(=O)[C@@H]2CCCN2C(=O)[C@H](CCc2ccc(C(F)(F)F)c(Cl)c2)NC(=O)CN(C)C(=O)[C@H](CC2CCCCC2)N(C)C(=O)CN(C)C(=O)CN(C)C1=O [Compound 1775] ([NMeL][Abu][Sar][Sar][NMeCha][Sar][hPhe(3-Cl-4-CF3)]P[Ac5c][NMeChg][NMeD]-Piperidide; lactam N-11) | 4
4 | CC[C@H](C)[C@@H]1NC(=O)[C@H](C)N(C)C(=O)C[C@@H](C)NC(=O)[C@H](C(C)C)N(C)C(=O)C2(CCCC2)NC(=O)[C@@H]2CCCN2C(=O)[C@H](CCc2ccc(C(F)(F)F)c(Cl)c2)NC(=O)CN(C)C(=O)[C@H](Cc2ccccc2)N(C)C(=O)[C@@H]2CCCN2C(=O)CN(C)C1=O [Compound 1778] (cyclo([Ac5c][NMeV][d(β3hA)][NMeA]I[Sar]P[NMeF][Sar][hPhe(3-Cl-4-CF3)]P)) | 7.3
5 | CC[C@H](C)[C@@H]1NC(=O)[C@H](CC(C)C)N(C)C(=O)C[C@@H](C(=O)N(C)C)N(C)C(=O)[C@H](C2CCCC2)N(C)C(=O)C2(CCCC2)NC(=O)[C@@H]2CCCN2C(=O)[C@H](CCc2ccc(C(F)(F)F)c(Cl)c2)NC(=O)CN(C)C(=O)[C@H](Cc2ccc(C)cc2)N(C)C(=O)CN(C)C(=O)CN(C)C1=O [Compound 1779] ([NMeL]I[Sar][Sar][NMePhe(4-Me)][Sar][hPhe(3-Cl-4-CF3)]P[Ac5c][NMeGly(cPent)][NMeD]-NMe2; lactam N-11) | 0.52
6 | CC[C@H](C)[C@@H]1NC(=O)[C@H](CC(C)C)N(C)C(=O)C[C@H](C(=O)N2CCCC2)N(C)C(=O)[C@H](C2CCCCC2)N(C)C(=O)C2(CCCC2)NC(=O)[C@@H]2CCCN2C(=O)[C@H](CCc2ccc(C(F)(F)F)c(Cl)c2)NC(=O)CN(C)C(=O)[C@H](CC2CCCCC2)N(C)C(=O)CN(C)C(=O)CN(C)C1=O [Compound 1781] ([NMeL]I[Sar][Sar][NMeCha][Sar][hPhe(3-Cl-4-CF3)]P[Ac5c][NMeChg][dNMeD]-Pyrrolidide; lactam N-11) | 49
7 | CC[C@H](C)[C@@H]1NC(=O)[C@H](CC(C)C)N(C)C(=O)C[C@@H](C(=O)N2CCCCC2)N(C)C(=O)[C@H](CCC(F)F)N(C)C(=O)C2(CCCC2)NC(=O)[C@@H]2CCCN2C(=O)[C@H](CCc2ccc(C(F)(F)F)c(Cl)c2)NC(=O)CN(C)C(=O)[C@H](CC2CCCCC2)N(C)C(=O)CN(C)C(=O)CN(C)C1=O [Compound 1782] ([NMeL]I[Sar][Sar][NMeCha][Sar][hPhe(3-Cl-4-CF3)]P[Ac5c][NMeNva(5,5-F2)][NMeD]-Piperidide; lactam N-11) | 2.2
8 | CC[C@H](C)[C@@H]1NC(=O)[C@H](C)N(C)C(=O)C[C@@H](C(=O)N2CCOCC2)N(C)C(=O)[C@H](C(C)C)N(C)C(=O)C2(CCCC2)NC(=O)[C@@H]2CCCN2C(=O)[C@H](CCc2ccc(C(F)(F)F)c(Cl)c2)NC(=O)[C@@H](C)N(C)C(=O)[C@H](CC2CCCCC2)N(C)C(=O)[C@@H]2CCCN2C(=O)CN(C)C1=O [Compound 1788] ([NMeA]I[Sar]P[NMeCha][dNMeA][hPhe(3-Cl-4-CF3)]P[Ac5c][NMeV][NMeD]-Morpholide; lactam N-11) | 4.3
9 | CC[C@H](C)[C@@H]1NC(=O)[C@H](CC(C)C)N(C)C(=O)C[C@H](C(=O)N2CCCC2)N(C)C(=O)[C@H](C2CCCC2)N(C)C(=O)C2(CCCC2)NC(=O)[C@@H]2CCCN2C(=O)[C@H](CCc2ccc(C(F)(F)F)c(Cl)c2)NC(=O)CN(C)C(=O)[C@H](CC2CCCCC2)N(C)C(=O)CN(C)C(=O)CN(C)C1=O [Compound 1794] ([NMeL]I[Sar][Sar][NMeCha][Sar][hPhe(3-Cl-4-CF3)]P[Ac5c][NMeGly(cPent)][dNMeD]-Pyrrolidide; lactam N-11) | 40
10 | CC(C)C[C@H]1C(=O)N[C@@H](CO)C(=O)N(C)CC(=O)N(C)CC(=O)N(C)[C@@H](CC2CCCCC2)C(=O)N(C)CC(=O)N[C@@H](CCc2ccc(C(F)(F)F)c(Cl)c2)C(=O)N2CCC[C@H]2C(=O)NC2(CCCC2)C(=O)N(C)[C@@H](C2CCCCC2)C(=O)N(C)[C@H](C(=O)N2CCCCC2)CC(=O)N1C [Compound 1799] ([NMeL]S[Sar][Sar][NMeCha][Sar][hPhe(3-Cl-4-CF3)]P[Ac5c][NMeChg][NMeD]-Piperidide; lactam N-11) | 15
11 | CC(C)C[C@H]1C(=O)N[C@@H](C)C(=O)N(C)CC(=O)N(C)CC(=O)N(C)[C@@H](CC2CCCCC2)C(=O)N(C)CC(=O)N[C@@H](CCc2ccc(C(F)(F)F)c(Cl)c2)C(=O)N2CCC[C@H]2C(=O)NC2(CCCC2)C(=O)N(C)[C@@H](C2CCCCC2)C(=O)N(C)[C@H](C(=O)N2CCCCC2)CC(=O)N1C [Compound 1802] ([NMeL]A[Sar][Sar][NMeCha][Sar][hPhe(3-Cl-4-CF3)]P[Ac5c][NMeChg][NMeD]-Piperidide; lactam N-11) | 21
12 | CC[C@H](C)[C@@H]1NC(=O)[C@H](C)N(C)C(=O)C[C@@H](C)N(C)C(=O)[C@H](C2CCCCC2)N(C)C(=O)C2(CCCC2)NC(=O)[C@@H]2CCCN2C(=O)[C@H](CCc2ccc(C(F)(F)F)c(Cl)c2)NC(=O)CN(C)C(=O)[C@H](CC2CCCCC2)N(C)C(=O)CN(C)C(=O)CN(C)C1=O [Compound 1808] (cyclo([Ac5c][NMeChg][NMedβ3hAla][NMeA]I[Sar][Sar][NMeCha][Sar][hPhe(3-Cl-4-CF3)]P)) | 47
13 | CC[C@H](C)[C@@H]1NC(=O)[C@H](CC(C)C)N(C)C(=O)C[C@@H](C)N(C)C(=O)[C@H](C2CCCCC2)N(C)C(=O)C2(CCCC2)NC(=O)[C@@H]2CCCN2C(=O)[C@H](CCc2ccc(C(F)(F)F)c(Cl)c2)NC(=O)CN(C)C(=O)[C@H](CC2CCCCC2)N(C)C(=O)[C@@H]2CCN2C(=O)[C@H](C)N(C)C1=O [Compound 1813] (cyclo([Ac5c][NMeChg][NMedβ3hAla][NMeL]I[NMeA][Aze][NMeCha][Sar][hPhe(3-Cl-4-CF3)]P)) | 36
14 | CC[C@H](C)[C@@H]1NC(=O)[C@H](CC(C)C)N(C)C(=O)C[C@H](C(=O)N2CCCC2)N(C)C(=O)[C@H]([C@@H](C)CC)N(C)C(=O)C2(CCCC2)NC(=O)[C@@H]2CCCN2C(=O)[C@H](CCc2ccc(C(F)(F)F)c(Cl)c2)NC(=O)CN(C)C(=O)[C@H](CC2CCCCC2)N(C)C(=O)CN(C)C(=O)CN(C)C1=O [Compound 1814] ([NMeL]I[Sar][Sar][NMeCha][Sar][hPhe(3-Cl-4-CF3)]P[Ac5c][NMeI][dNMeD]-Pyrrolidide; lactam N-11) | 170
15 | CCCC[C@H]1C(=O)N(C)[C@H](C(=O)N2CCCCC2)CC(=O)N(C)[C@@H](CC(C)C)C(=O)N[C@@H]([C@@H](C)CC)C(=O)N(C)CC(=O)N(C)CC(=O)N(C)[C@@H](CC2CCCCC2)C(=O)N(C)CC(=O)N[C@@H](CCc2ccc(C(F)(F)F)c(Cl)c2)C(=O)N2CCC[C@H]2C(=O)NC2(CCCC2)C(=O)N1C [Compound 1815] ([NMeL]I[Sar][Sar][NMeCha][Sar][hPhe(3-Cl-4-CF3)]P[Ac5c][NMeNle][NMeD]-Piperidide; lactam N-11) | 2.5
16 | CC[C@H](C)[C@@H]1NC(=O)[C@H](CC(C)C)N(C)C(=O)C[C@@H](C(=O)N2CCCC2)N(C)C(=O)[C@H](C2CCCC2)N(C)C(=O)C2(CCCC2)NC(=O)[C@@H]2CCCN2C(=O)[C@H](CCc2ccc(C(F)(F)F)c(Cl)c2)NC(=O)CN(C)C(=O)[C@H](CC2CCCCC2)N(C)C(=O)CN(C)C(=O)CN(C)C1=O [Compound 1818] ([NMeL]I[Sar][Sar][NMeCha][Sar][hPhe(3-Cl-4-CF3)]P[Ac5c][NMeGly(cPent)][NMeD]-Pyrrolidide; lactam N-11) | 0.4
17 | CC[C@H](C)[C@@H]1NC(=O)[C@H](CC(C)C)N(C)C(=O)C[C@@H](C(=O)N2CCCCC2)N(C)C(=O)[C@H](C(C)C)N(C)C(=O)C2(CCCC2)NC(=O)[C@@H]2CC(=O)CN2C(=O)[C@H](CCc2ccc(C(F)(F)F)c(Cl)c2)NC(=O)CN(C)C(=O)[C@H](CC2CCCCC2)N(C)C(=O)[C@@H]2CCN2C(=O)[C@H](C)N(C)C1=O [Compound 1819] ([NMeL]I[NMeA][Aze][NMeCha][Sar][hPhe(3-Cl-4-CF3)][Pro(4-oxo)][Ac5c][NMeV][NMeD]-Piperidide; lactam N-11) | 3.8
18 | CC[C@H](C)[C@@H]1NC(=O)[C@H](C)N(C)C(=O)C[C@@H](C(=O)N2CCCC2)N(C)C(=O)[C@H](C2CCCCC2)N(C)C(=O)C2(CCCC2)NC(=O)[C@H](Cc2cccnc2)N(C)C(=O)[C@H](CCc2ccc(C(F)(F)F)c(Cl)c2)NC(=O)CN(C)C(=O)[C@H](CC2CCCCC2)N(C)C(=O)CN(C)C(=O)CN(C)C1=O [Compound 1834] ([NMeA]I[Sar][Sar][NMeCha][Sar][hPhe(3-Cl-4-CF3)][NMe3Pal][Ac5c][NMeChg][NMeD]-Pyrrolidide; lactam N-11) | 0.81

Source: patent US12371454B2, “Cyclic peptide compound having Kras inhibitory action” (priority 2019, dated 2025)
